Experiments:
[1] = test system: SW-982 synovial sarcoma cells; assay: Anticancer cell cytotoxicity assay; assay type: cell-based; conditions: Homo sapiens, SW982, 24 h, read-out: SW-982 IC50 (μM)
[2] = test system: primary peripheral blood mononuclear cells (PBMCs); assay: Cytotoxicity assay; assay type: cell-based; conditions: Homo sapiens, PBMC, 24 h, read-out: PBMCs IC50 (μM)
[3] = test system: THP-1 monocytic leukemia cells; assay: Anticancer cell cytotoxicity assay; assay type: cell-based; conditions: Homo sapiens, THP-1, 24 h, read-out: THP-1 IC50 (μM)
[4] = test system: MonoMac6 monocytic leukemia cells; assay: Anticancer cell cytotoxicity assay; assay type: cell-based; conditions: Homo sapiens, MONO-MAC-6, 24 h, read-out: MonoMac6 IC50 (μM)
[5] = test system: MCF7 breast adenocarcinoma cells; assay: Anticancer cell cytotoxicity assay; assay type: cell-based; conditions: Homo sapiens, MCF7, 24 h, read-out: MCF7 IC50 (μM)
[6] = test system: LS174T colorectal adenocarcinoma cells; assay: Anticancer cell cytotoxicity assay; assay type: cell-based; conditions: Homo sapiens, 24 h, read-out: LS174T IC50 (μM)
[7] = test system: A549 lung carcinoma cells; assay: Anticancer cell cytotoxicity assay; assay type: cell-based; conditions: Homo sapiens, A549, 24 h, read-out: A549 IC50 (μM)
[8] = test system: nine tumor cell lines and primary PBMCs; assay: Cytotoxicity across the panel of nine tumor cell lines and PBMCs; assay type: cell-based, human; conditions: 24 h, up to 50 μM
U936 = assay: Anticancer cell cytotoxicity assay; assay type: cell-based; conditions: Homo sapiens, 24 h, read-out: U936 IC50 (μM)
[9] = biological target: T1, human neutrophil elastase (HNE) (Homo sapiens, UniProt P08246); assay: HNE inhibitory assay; assay type: biochemical
T1 sequence (P08246 30-247 limits assumed): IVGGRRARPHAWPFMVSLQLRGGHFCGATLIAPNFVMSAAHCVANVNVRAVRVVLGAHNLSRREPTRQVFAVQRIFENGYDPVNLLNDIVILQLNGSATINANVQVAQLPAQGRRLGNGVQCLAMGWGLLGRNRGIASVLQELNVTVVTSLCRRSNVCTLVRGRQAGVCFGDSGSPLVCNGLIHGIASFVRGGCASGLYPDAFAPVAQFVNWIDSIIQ

MKK7 = biological target: T2, MKK7 (Homo sapiens, UniProt O14733); assay: KINOMEscan kinase binding assay
T2 sequence (O14733 1-419): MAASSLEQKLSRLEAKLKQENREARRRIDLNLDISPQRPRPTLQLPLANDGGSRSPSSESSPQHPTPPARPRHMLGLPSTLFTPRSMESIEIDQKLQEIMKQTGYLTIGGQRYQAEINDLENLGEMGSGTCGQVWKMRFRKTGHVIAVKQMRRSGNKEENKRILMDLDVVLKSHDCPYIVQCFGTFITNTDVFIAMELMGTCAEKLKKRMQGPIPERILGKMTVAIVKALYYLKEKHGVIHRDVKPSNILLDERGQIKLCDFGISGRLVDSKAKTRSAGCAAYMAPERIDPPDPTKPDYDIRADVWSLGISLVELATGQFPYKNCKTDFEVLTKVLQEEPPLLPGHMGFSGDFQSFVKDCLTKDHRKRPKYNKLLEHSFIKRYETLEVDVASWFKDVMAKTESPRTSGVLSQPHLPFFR

[10] = test system: HL60 promyelocytic leukemia cells; assay: Anticancer cell cytotoxicity assay; assay type: cell-based; conditions: Homo sapiens, HL-60, 24 h, read-out: HL60 IC50 (μM)
Jurkat T cells = assay: Anticancer cell cytotoxicity assay; assay type: cell-based; conditions: Homo sapiens, 24 h, read-out: Jurkat IC50 (μM)

CC(C)=CCC1=C(O)C(=O)c2ccccc2C1=O [Compound 3, lapachol]
> 30 µM: Kd (MKK7)
did not bind: Kd (μM) vs MKK7 (MKK7; KINOMEscan, duplicate, maximum concentration 30 μM)
did not find any toxicity: cytotoxicity toward tumor cell lines and PBMCs (in words) [8]
> 50 µM: IC50 [1] | IC50 [2] | IC50 [3] | IC50 [4] | IC50 [5] | IC50 [6] | IC50 [7] | IC50 (U936) | IC50 [9] | IC50 [10] | IC50 (Jurkat T cells)

Reference: paper PMC6925601 (European journal of medicinal chemistry, 2019)
